Assays:
HBV cccDNA [1] = assay: Base editing of HBV cccDNA in primary human hepatocytes (HBV-PHH); type: cell-based, Hepatitis B virus; settings: PHH, BE4 + gRNA37 + gRNA40
Text: Base editor systems comparing guide RNAs evaluated in Example 1 were subsequently tested for anti-viral and editing efficacy using the Hepatitis B virus-primary human hepatocyte (HBV-PHH) system. Cells were transfected with the guide RNAs and mRNAs encoding the base editor as described in Example 1. […] Guide RNAs ABE-133, MSPbeam94, and ABE-85 were associated with a 70-80% reduction of HBV DNA as compared to controls. The guide RNAs PolyA-NGC1 and PolyA-NGC2 were associated with high editing followed by 90% efficacy in reduction of HbeAg.
(§1) Having identified gRNA37 and gRNA40 as effective gRNAs, the antiviral efficacy of a base editor system containing BE4, gRNA37 and gRNA40 (i.e., multiplexing gRNAs) was evaluated, FIGS. 8-10. It was determined that the base editor system multiplexed with the two gRNAs was associated with a reduction of HBV viral parameters in HepG2-NTCP cells, see FIG. 9. […] For the evaluation of editing of cccDNA, the cccDNA was enriched via Hirt extraction and ExoI/ExoIII nuclease treatment to remove rcDNA (relaxed circular DNA). Throughout the Examples provided herein, editing of cccDNA was evaluated using next generation sequencing completed using cccDNA enriched in this way.
The design of the experiments is described schematically in FIG. 14. Primary human hepatocyte (PHH) cells were infected with HBV at day 0. At days 4 and 11, the cells were transfected with mRNA encoding BE4 and with gRNA37 and gRNA40. Measurements of HBV DNA were taken over time, and measurements of HBsAg, HBeAG, HBV total DNA, 3.5 kb RNA, and cccDNA editing were taken at day 25. The experiments were carried out using a PHH co-culture system available from PhoenixBio. The PHH co-culture system maintained hepatocyte differentiation and metabolic activity for over 30 days. The HBV infection in the cells was persistent and a cccDNA level was maintained.
The design of the experiments is described schematically in FIG. 18. Primary human hepatocyte (PHH) cells were infected with HBV at day 0, at day 4 an 8-day. Treatment with lamivudine commenced (which included a 3-day pretreatment period within the 8-day total), and cells were transfected with mRNA encoding BE4 and the gRNAs gRNA37 and gRNA40 at days 7 and 14. HBV DNA levels were measured over time, and additional HBV markers were measured at day 21.
Primary hepatocytes (PHH) co-cultures infected with HBV were used to test antiviral efficacy of base editing systems. Primary hepatocyte co-culture (PHH) infected with HBV virus is a clinically relevant system for assessing anti-viral activity of base editing systems. The base editing reagents (mRNA encoding a base editor(s) and synthetic gRNA) were transfected via lipofection twice over the course of two weeks. The first transfection was performed about 3, 4, or 7 days after infection (days post infection (dpi)). Not being bound by theory, this 3-to-7-day period ensured that the cccDNA was completely formed at the time of the transfection. The second transfection was at about 7, 10, 11, or 14 days after infection. Extracellular parameters (e.g., HBsAg, HBeAg, and HBV DNA) were monitored over the course of the experiment (including the end of the experiment) and intracellular parameters (HBV DNA, viral RNA, and editing) were measured at the end of the experiment. Cells were lysed at the termination of the experiment (e.g., at 15, 17, 21, or 25 days).
Transfection details: RNA format, 800 ng total RNA per well in a 24 well plate (600 ng base editor-encoding mRNA+200 ng gRNA) transfected via lipofection (lipofectamin messengerMax, thermofisher Scientific) according to the vendor protocol.

Hepatitis B virus = assay: Antiviral efficacy in HBV-infected primary human hepatocytes (HBV-PHH): HBsAg, HBeAg, HBV DNA, 3.5 kb RNA, rebound; type: cell-based; settings: PHH co-culture, transfection at days 4 and 11; lamivudine 8 days then discontinued
HBV cccDNA [2] = assay: cccDNA editing in HBV-infected HepG2-NTCP cells (NGS on enriched cccDNA); type: cell-based, Hepatitis B virus; settings: for improvement in base editing efficiency by lamivudine pretreatment: HepG2-NTCP, 3-day pretreatment (8-day total), BE4 mRNA + gRNAs 37 and 40
Text: Experiments were completed using guide RNA's listed in Table 1 to identify combinations of guide RNA's effective in treating HBV-infected cells. HepG2-NTCP cells were transfected with mRNA encoding BE4 and a guide RNA(s) selected from gRNA12, gRNA37, gRNA19, gRNA190, and gRNA40. HepG2-NTCP cells are described in Sun, et al. “NTCP-Reconstituted In Vitro HBV Infection System,” Methods Mol. Biol. 1540:1-14 (2017), DOI: 10.1007/978-1-4939-6700-1_1, the disclosure of which is incorporated herein by reference in its entirety for all purposes. Cells were infected at day 0 with HBV and then transfected with the mRNA and gRNA(s) at day 4, see FIG. 6. Measurements of HBsAg, HBeAg, total HBV DNA, and 3.5 kb viral DNA were taken at day 14, see FIG. 6. The guide RNA, gRNA37, targeted HBsAg and gRNA40 targeted the HBV core protein, see FIG. 7. The use of gRNA37 was associated with a reduction in HBsAg levels and the use of gRNA40 was associated with a reduction in HBeAg levels, see FIG. 8. Also, each of gRNA37 and gRNA40 was associated with a lowering of total HBV DNA and 3.5 kb RNA levels.
as §1
HepG2-NTCP cells were infected with HBV at day 0, at day 4 an 8-day treatment with lamivudine commenced (which included a 3-day pretreatment period within the 8-day total), at day 7 cells were transfected with mRNA encoding BE4 and gRNAs 37 and 40, and measurements were taken at day 15. […]

[3] = tested on: naturally integrated HBV genome in PLC/PRF/5; assay: Editing of naturally integrated HBV genome in PLC/PRF/5 cells; type: cell-based, Hepatitis B virus; settings: BE4 + gRNA
Text: This editing reduced HBsAg secretion (FIG. 34B).

HBsAg = settings: PLC/PRF/5 cells, BE4 + gRNA, 6th day post-transfection

Compound | editing in primary hepatocytes with lamivudine pretreatment (HBV cccDNA [1]) | HBV rebound (extracellular HBV DNA, qPCR in supernatant) (Hepatitis B virus) | improvement in base editing efficiency by lamivudine pretreatment (HBV cccDNA [2]) | improvement in base editing efficiency by lamivudine pretreatment (HBV cccDNA [2]; listed as Lamivudine) [%] | functional editing by NGS on cccDNA enriched samples in the presence of 3TC (HBV cccDNA [2]; gRNA B+gRNA H with BE4) | editing of the naturally integrated HBV genome [3] | extracellular HBsAg (secretion) (HBsAg)
Nc1ccn([C@@H]2CS[C@H](CO)O2)c(=O)n1 [lamivudine, 2′,3′-dideoxy-3′-thiacytidine 4-Amino-1-[(2R,5S)-2-(hydroxymethyl)-1,3-oxathiolan-5-yl]-1,2-dihydropyrimidin-2-one] | improved editing | rebounded | about 20% | 20 | Higher editing efficiency | – | –
MSPbeam37-PLC: guide RNA with spacer sequence SEQ ID NO. 10834, single nucleobase change relative to MSPbeam37 (guide GAAAGCCCAAGAUGAUGGGA; guide RNA scaffold, chemistry not fully specified) | – | – | – | – | – | edited | reduced

Source: patent US20240294914A1, “COMPOSITIONS AND METHODS FOR TREATING HEPATITIS B VIRUS INFECTION” (priority 2021, published 2024)
